This experiment can be described thus: Inhibition of VEGFR2 in HUVEC assessed as inhibition of VEGF-induced tube formation incubated for 8 hrs by inverted microscopic method.

What is called IC50 is the concentration at which inhibition is half-maximal. As for `C/C=C(\C)C(=O)O[C@@H]1C2=C(C)C(=O)N[C@]2(O)C[C@@]2(C)O[C@@H]2CC[C@@]2(C)O[C@H]12`, the IC50 came out at 40.4 µM.
